Consider 1 molecule from article PMC2823129 (Lipids, 2009).

For this experiment, the system named is mitochondrial GPAT (GPAT1-like). Put plainly: […]glycerol-3-phosphate incorporation into organic phase, liquid scintillation. Type of experiment: biochemical, Macrobrachium borellii. The note with it: read-out: apparent Km; mitochondrial fraction; 0.8 mM glycerol-3-phosphate, 4 mM MgCl2, 2 mg/ml BSA, 8 mM NaF, 1 mM DTT, 75 mM Tris-HCl pH 7.4, 30°C.

In general, Km refers to the concentration of substrate that gives half-maximal velocity. In the case of `CCCCCCCC/C=C\CCCCCCCC(=O)SCCNC(=O)CCNC(=O)[C@H](O)C(C)(C)COP(=O)(O)OP(=O)(O)OC[C@H]1O[C@@H](n2cnc3c(N)ncnc32)[C@H](O)[C@@H]1OP(=O)(O)O` [oleoyl-CoA], the Michaelis constant (Km) was found to be 31.2 µM.
